Results from patent US4731360A, “Acylcarnitines as absorption-enhancing agents for drug delivery through mucous membranes of the nasal, buccal, sublingual and vaginal compartments” (Merck & Co., Inc., priority 1985, dated 1988).

Experiments:
mucosal cells = conditions: studies of surfactants; cited from earlier work
[1] = system: mucous membranes of the nasal, buccal, sublingual and vaginal compartments; test: Promotion of drug absorption through mucous membranes; conditions: without acyl ester
[2] = Percent bioavailability of α-methyldopa after nasal, oral (buccal) or vaginal administration to rats, with or without palmitoylcarnitine chloride; blood levels by HPLC, against intravenous administration; type: in vivo; conditions: aqueous formulation, mean ± SD, n = 3, vs intravenous; for Percent α-methyldopa Bioavailability in the Presence (+) of Palmitoylcarnitine: with 1.0 mg palmitoylcarnitine chloride; for Percent α-methyldopa Bioavailability in the Absence (-) of Palmitoylcarnitine: without palmitoylcarnitine
Method: Effect of palmitoylcarnitine chloride on the nasal, buccal and vaginal absorption of α-methyldopa (amino acid, antihypertensive). Experiments were performed with rats wherein each animal received an aqueous formulation administered to the nasal, oral or vaginal cavities. The formulations contained the indicated amount of α-methyldopa in the presence or absence of 1.0 mg palmitoylcarnitine chloride. Procedures were tested to eliminate the possibility of cross-contamination between the nasal and oral cavities. Blood levels of α-methyldopa were determined by high performance liquid chromatography and the amount of drug absorbed (percent bioavailability) calculated against intravenous α-methyldopa administration. | Values represent the mean ± SD for n = 3 determinations.

[3] = nasal cavity, α-methyldopa 0.5 mg
[4] = oral cavity (buccal), α-methyldopa 2.5 mg
[5] = vaginal cavity, α-methyldopa 2.5 mg

For CCCCCCCCCCCCOS(=O)(=O)[O-].[Na+] [sodium lauryl sulfate], the “cellular damage associated with surfactant activity” value (mucosal cells) is given as “generally associated with some degree of cellular damage”.

In the case of C[N+](C)(C)CC(O)CC(=O)[O-] (centres unmarked) [carnitine], the “absorption promoting effect of carnitine alone” value [1] is reported as “no effect”.

In the case of C[C@](N)(Cc1ccc(O)c(O)c1)C(=O)O [α-methyldopa], the “Percent α-methyldopa Bioavailability in the Presence (+) of Palmitoylcarnitine” value [2, 3] is reported as 52 ± 16.2%, the “Percent α-methyldopa Bioavailability in the Absence (-) of Palmitoylcarnitine” value [2, 3] is reported as 7 ± 1.1% and the “Percent α-methyldopa Bioavailability in the Presence (+) of Palmitoylcarnitine” value [2, 4] is reported as 10 ± 6.0%. The “Percent α-methyldopa Bioavailability in the Absence (-) of Palmitoylcarnitine” value [2, 4] was 3 ± 0.7%, the “Percent α-methyldopa Bioavailability in the Presence (+) of Palmitoylcarnitine” value [2, 5] was 100 ± 55.0% and the “Percent α-methyldopa Bioavailability in the Absence (-) of Palmitoylcarnitine” value [2, 5] was 2 ± 1.0%.
